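Dose response: 5 concentrations. Exposure: 48 h. Format: 96-well plates. Endpoint: linear interpolation; highest concentration if not reached. GI50 marks 50% less growth.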 Active and inactive are the calls of the source. Rule as the data show it: active = GI50 up to about 1.1 µM and inactive = higher.

Results on twelve compounds are retold here after ChEMBL document CHEMBL1201862, “PubChem BioAssay data set” (2004).

Some test systems named below: SF-268; NCI-H460; EKVX; SNB-19; IGROV-1; SK-MEL-28; SW-620; HCC 2998; OVCAR-3; HOP-62; UACC-257; HCT-116; SK-MEL-2; UACC-62; ACHN; U-251; DLD-1; RXF 393; MDA-MB-231; PC-3.
Holding throughout (assay): inhibition of tumour cell growth, NCI panel, 48 h

Consider `COc1ccc(C(N)=O)cc1/N=N/N(C)C`, for which the GI50 in the assay with SF-268, in the assay on NCI-H460, in the assay with EKVX, in the assay on SNB-19, in the assay with IGROV-1 and with SK-MEL-28 was > 100 µM (inactive) each time. Besides, the GI50 with SW-620, with HCC 2998, in the assay on OVCAR-3, with HOP-62, with UACC-257 and in the assay with HCT-116 was > 100 µM (inactive) each time. Further, the GI50 in the assay on SK-MEL-2, with UACC-62, in the assay on ACHN, with U-251 and with DLD-1 was > 100 µM (inactive) throughout.
Regarding `N=C(N)SCc1cn2ccccc2n1`, the GI50 in the assay with SF-268, in the assay on NCI-H460, in the assay on EKVX, with SNB-19, with SK-MEL-28 and with SW-620 was > 100 µM (inactive) each time. Further, the GI50 with HCC 2998, in the assay with OVCAR-3, in the assay with HOP-62, in the assay with UACC-257, in the assay with HCT-116 and in the assay on SK-MEL-2 was > 100 µM (inactive) in each case. In addition, the results for the GI50 in the assay on ACHN, with U-251 and in the assay on DLD-1 were > 100 µM (inactive), > 100 µM (inactive) and 77.8 µM (inactive), respectively.
Turning to `COc1c(C)c(O)c2c(=O)cc(-c3ccccc3)oc2c1C`, the GI50 with SF-268, in the assay on NCI-H460, in the assay on EKVX, with IGROV-1, in the assay on SK-MEL-28 and with SW-620 was > 100 µM (inactive) throughout. Also, the GI50 in the assay with HCC 2998, in the assay on OVCAR-3, in the assay with HOP-62, with UACC-257, in the assay with HCT-116 and with SK-MEL-2 was > 100 µM (inactive) throughout. In addition, the GI50 in the assay with UACC-62, in the assay on ACHN, in the assay on U-251 and in the assay with DLD-1 was > 100 µM (inactive) throughout.
As to `CCCCCCCCCCCCCCCC(=O)OCCOCCOCCOCc1ccccc1`, the GI50 in the assay with SF-268 was 91 µM (inactive); in the assay with NCI-H460, > 100 µM (inactive); with EKVX, > 100 µM (inactive); with SNB-19, 63.8 µM (inactive); in the assay on IGROV-1 it was > 100 µM (inactive); with SK-MEL-28, > 100 µM (inactive). Besides, the GI50 in the assay on SW-620, in the assay on OVCAR-3, with HOP-62, in the assay with RXF 393, with UACC-257 and in the assay with HCT-116 was > 100 µM (inactive) each time. Further, the GI50 in the assay on SK-MEL-2 is > 100 µM (inactive); with UACC-62, 36.1 µM (inactive); in the assay on ACHN, > 100 µM (inactive); with U-251, 41.6 µM (inactive); in the assay on DLD-1 it was > 100 µM (inactive).
Take `CCC(=O)N1C(=S)SC[C@H]1C(=O)OC`: the GI50 with SF-268, with EKVX, in the assay on SNB-19, in the assay with IGROV-1, in the assay with SK-MEL-28 and in the assay on SW-620 was > 100 µM (inactive) throughout. In addition, the GI50 with HCC 2998, in the assay on OVCAR-3, in the assay on HOP-62, in the assay on RXF 393, in the assay on UACC-257 and with HCT-116 was > 100 µM (inactive) throughout. Moreover, the GI50 in the assay with UACC-62, with ACHN, with U-251 and in the assay with DLD-1 was > 100 µM (inactive) throughout.
As for `O=C1OC2(c3ccccc3Oc3ccccc32)c2ccccc21`, the GI50 with SF-268, in the assay with NCI-H460, in the assay on EKVX, in the assay on SNB-19, in the assay on IGROV-1 and in the assay with SK-MEL-28 was > 100 µM (inactive) in each case. Besides, the GI50 was > 100 µM (inactive) with SW-620; > 100 µM (inactive) in the assay on HCC 2998; > 100 µM (inactive) with OVCAR-3; > 100 µM (inactive) with HOP-62; 99.5 µM (inactive) in the assay on UACC-257; > 100 µM (inactive) with HCT-116. The GI50 in the assay with SK-MEL-2, in the assay on UACC-62, in the assay with ACHN, in the assay on U-251 and with DLD-1 was > 100 µM (inactive) throughout.
In the case of `O=C(O)c1cc2ccccc2c(/N=N/c2ccc(S(=O)(=O)O)cc2)c1O`, the GI50 is > 100 µM (inactive) in the assay on SF-268; > 100 µM (inactive) with NCI-H460; > 100 µM (inactive) in the assay with EKVX; 0.0264 µM (active) in the assay with SNB-19; > 100 µM (inactive) with IGROV-1; > 100 µM (inactive) with SK-MEL-28. The GI50 in the assay on SW-620, with HCC 2998, with OVCAR-3, in the assay on HOP-62, in the assay with RXF 393 and in the assay on UACC-257 was > 100 µM (inactive) in each case. The GI50 with HCT-116, with MDA-MB-231, in the assay on SK-MEL-2, with UACC-62, in the assay on PC-3 and with ACHN was > 100 µM (inactive) in each case. Moreover, the GI50 with U-251 is > 100 µM (inactive).
As to `O=C(CCn1[nH]c(=O)c(Cl)c(Cl)c1=O)NOCCCc1ccccc1`, the GI50 with SF-268, in the assay with NCI-H460, in the assay on EKVX, in the assay on SNB-19, with IGROV-1 and in the assay with SK-MEL-28 was > 100 µM (inactive) throughout. Besides, the GI50 with SW-620, in the assay on HCC 2998, in the assay with OVCAR-3, with HOP-62, in the assay with UACC-257 and in the assay on HCT-116 was > 100 µM (inactive) in each case. Also, the GI50 in the assay with SK-MEL-2, in the assay on UACC-62, in the assay on ACHN and in the assay with DLD-1 was > 100 µM (inactive) in each case.
In the case of `O=C1c2cccc3c(Cl)ccc(c23)C(=O)N1CCCN1CCN(CCCN2C(=O)c3cccc4c(Cl)ccc(c34)C2=O)CC1`, the GI50 with NCI-H460 was > 100 µM (inactive); with EKVX, > 100 µM (inactive); with SNB-19, > 100 µM (inactive); in the assay with IGROV-1, > 100 µM (inactive); with SW-620 it was > 100 µM (inactive); in the assay on HCC 2998 it was 53.3 µM (inactive). Moreover, the GI50 in the assay with OVCAR-3 was > 100 µM (inactive); with HOP-62, > 100 µM (inactive); with UACC-257 it was > 100 µM (inactive); in the assay with HCT-116, 66.7 µM (inactive); with SK-MEL-2 it was > 100 µM (inactive); in the assay with UACC-62 it was > 100 µM (inactive). The GI50 in the assay with ACHN was 81.8 µM (inactive); in the assay on U-251, 55.7 µM (inactive); with DLD-1, 50.5 µM (inactive).
Turning to `O=[N+]([O-])/C(C(Cl)=C(Cl)Cl)=C(/Br)SCc1ccccc1`, the GI50 in the assay with SF-268 was 2.52 µM (inactive); in the assay on NCI-H460 it was 7.13 µM (inactive); in the assay on EKVX, 5.46 µM (inactive); in the assay with SNB-19, 10.4 µM (inactive); in the assay on IGROV-1, 3.71 µM (inactive); in the assay with SK-MEL-28, 1.89 µM (inactive). Also, the GI50 was 1.63 µM (inactive) in the assay with SW-620; 7.21 µM (inactive) in the assay with HCC 2998; 1.86 µM (inactive) in the assay on OVCAR-3; 15.5 µM (inactive) in the assay with HOP-62; 1.79 µM (inactive) with RXF 393; 3.18 µM (inactive) with UACC-257. Further, the GI50 in the assay on HCT-116 is 1.73 µM (inactive); in the assay on MDA-MB-231, 2.72 µM (inactive); in the assay with SK-MEL-2, 4.42 µM (inactive); with UACC-62, 3.42 µM (inactive); in the assay with PC-3, 2.79 µM (inactive); in the assay on ACHN, 2.64 µM (inactive). Besides, the GI50 with U-251 was 4.48 µM (inactive).
For `NCCCCCCNCc1cccc2ccccc12`, the GI50 in the assay on NCI-H460 is > 100 µM (inactive); in the assay on EKVX it was > 100 µM (inactive); with SNB-19, > 100 µM (inactive); with IGROV-1, > 100 µM (inactive); in the assay on SK-MEL-28, 65.2 µM (inactive); in the assay on SW-620, 85.5 µM (inactive). Besides, the GI50 with OVCAR-3 was > 100 µM (inactive); in the assay with HOP-62, > 100 µM (inactive); with RXF 393, 57 µM (inactive); in the assay on UACC-257, 46.3 µM (inactive); in the assay on HCT-116, 95.1 µM (inactive); with SK-MEL-2, 41.3 µM (inactive). Further, the GI50 in the assay with UACC-62, in the assay with ACHN, in the assay with U-251 and in the assay on DLD-1 was > 100 µM (inactive) throughout.
For `O=[N+]([O-])C(=C(Nc1ccccc1)Nc1ccccc1)C(Cl)=C(Cl)Cl`, the GI50 in the assay with SF-268 was 18.7 µM (inactive); in the assay with NCI-H460 it was 16.1 µM (inactive); in the assay with EKVX, 15.7 µM (inactive); in the assay with SNB-19, 17.9 µM (inactive); with IGROV-1, 12.9 µM (inactive); in the assay on SK-MEL-28, 18.7 µM (inactive). In addition, the GI50 was 14.5 µM (inactive) in the assay with SW-620; 19.5 µM (inactive) with HCC 2998; 16.5 µM (inactive) in the assay on OVCAR-3; 21.9 µM (inactive) with HOP-62; 15.8 µM (inactive) in the assay on RXF 393; 14.9 µM (inactive) with UACC-257. Moreover, the GI50 with HCT-116 is 12.5 µM (inactive); in the assay on MDA-MB-231 it was 17.3 µM (inactive); in the assay with SK-MEL-2 it was 13.1 µM (inactive); in the assay on UACC-62, 15.6 µM (inactive); in the assay on PC-3, 15.2 µM (inactive); in the assay on ACHN, 15.9 µM (inactive). Moreover, the GI50 with U-251 is 20.2 µM (inactive).
